The experiment addresses T1, PAK4 (Homo sapiens, UniProt O96013).
T1 construct: kinase domain
In words: Z'-LYTE FRET peptide kinase assay with recombinant enzyme. The format is biochemical.

T1 sequence (O96013 291-591 limits assumed): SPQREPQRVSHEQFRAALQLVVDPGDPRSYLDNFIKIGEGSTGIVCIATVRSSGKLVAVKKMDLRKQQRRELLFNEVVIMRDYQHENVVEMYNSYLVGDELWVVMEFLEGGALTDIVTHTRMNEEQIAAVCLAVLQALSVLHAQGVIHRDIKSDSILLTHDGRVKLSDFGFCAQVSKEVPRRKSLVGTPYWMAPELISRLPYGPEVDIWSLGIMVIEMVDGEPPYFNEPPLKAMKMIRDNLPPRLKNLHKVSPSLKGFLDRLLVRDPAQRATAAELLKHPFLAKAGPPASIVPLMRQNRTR

In the case of `CCn1c(=O)c(-c2ccc(-c3cncc(C)n3)cc2Cl)cc2cnc(NCCC3CCN(C)CC3)nc21` [FRAX1036], the Ki (usually a dissociation constant, usually derived from enzyme kinetics or from competition with a known ligand) worked out at 2.4 µM.

The record behind these values is article PMC4445529, “Small molecule inhibition of group I p21-activated kinases in breast cancer induces apoptosis and potentiates the activity of microtubule stabilizing agents” (Breast Cancer Research : BCR, 2015).
